Legend:
[1] = tested on: COX-2 and COX-1 enzymes; conditions: cited from earlier work; for inhibition of COX-2 relative to COX-1: in vitro
[2] = tested on: H23 cells; experiment: Immunoblot of cleaved PARP; type: cell-based, human; conditions: 20 mM 2-DG, 24 hours
Protocol: (§1) FIG. 4 (in panels A through F) illustrates in graphs and immunoblots that 2-DG induces apoptosis in LKB1 null NSCLC cells. […] Bars represent standard error and the studies were repeated twice. FIG. 4B is an immunoblot of cleaved PARP. H23 and H2009 cells were treated for 24 hours with 20 mM of 2-DG. […] GAPDH was used as a loading control. FIG. 4C is an immunoblot of LKB1 and KDLKB1 in H23 cells after retroviral infection and puromycin selection. GAPDH was used as a loading control. FIG. 4D is an immunoblot that illustrates 2-DG activation of LKB1 in H23-LKB1, but not H23-KDLKB1 cells. The blot was stripped and probed for AMPK as a loading control. The blot represents two independent studies. FIG. 4E is a graph that illustrates that LKB1, but not KDLKB1 prevents activation of caspase 3 and 7 in H23 cells. H23-LKB1 and H23-KDLKB1 cells were treated for 24 hours with 20 mM 2-DG before analysis as described hereinafter. Bars represent standard error, and the study was repeated twice. FIG. 4F is an immunoblot of cleaved PARP in H23-LKB1 and H23-KDLKB1 after treatment with 20 mM of 2-DG for 24 hours. Blot is representative of two independent studies. GAPDH was used as a loading control. […]
(§2) Cells were incubated on ice for 30 minutes with a lysis buffer containing 10 mM Tris-HCL, 150 mM NaCl and 1% IGEPAL (Sigma). […] Protein concentration was determined using the Bio-Rad DC protein kit. […]

[3] = tested on: H23-LKB1 cells; experiment: Immunoblot of cleaved PARP; type: cell-based, human; conditions: H23 re-expressing LKB1; 20 mM 2-DG, 24 hours
Protocol: as §1, §2

[4] = tested on: H23-LKB1 cells; experiment: Caspase 3/7 activity (Caspase-Glo 3/7); type: cell-based, human; conditions: H23 re-expressing LKB1; 20 mM 2-DG, 24 hours
Protocol: as §1, with “hours.” for “hours. Blot is representative of two independent studies. GAPDH was used as a loading control.”
(§3) Cell lines were plated at a density of 5000 cells per well in 96 well plates. […] Activity of caspases 3 and 7 were determined using a Caspase-Glo® 3/7 kit (Promega) according to manufacturer's instructions and scanned using a Beckman Coulter DTX 880 plate reader. […]

[5] = tested on: LKB1 null NSCLC cells (H23, H2122); experiment: Cell viability after 2-DG (CellTiter Blue); type: cell-based, human; conditions: 48 hours
Protocol: (§4) FIG. 3 (in three panels, A, B and C) illustrates the effect of 2-deoxyglucose (2-DG) in LKB1 null and LKB1 expressing NSCLC cells. FIG. 3A is an immunoblot of LKB1 in H23, H2122, H2009 and H441 NSCLC cell lines. GAPDH was used as a loading control. FIG. 3B illustrates an immunoblot showing the induction of AMPK phosphorylation by 2-DG. LKB1 positive (H2009, H441) and LKB1 negative (H23, H2122) cell lines were treated with 20 mM of 2-DG for 1 hour. Protein lysates were immunoblotted with an antibody specific to phosphorylated Thr172 AMPK. It is noted that 2-DG induces phosphorylation at Thr172 only in LKB1 expressing cells. Both AMPK and GAPDH were used as loading controls. The blot is representative of two independent experiments. C-LKB1 null NSCLC cell are more sensitive to 2-DG. […] NSCLC cell lines were treated for 48 hours with indicated concentrations of 2-DG. Bars represent standard error.
(§5) Because LKB1-AMPK signaling can affect cell growth or cell number, the number of viable LKB1 null and LKB1 positive cells were compared after treatment with 2-DG for a range of concentrations, over time.
(§6) LKB1 negative (H23, H2122) and positive (H2009, H441) NSCLC cell lines were treated with decreasing doses of 2-deoxyglucose (2-DG) for 72 hours. Cell viability, markers of apoptosis (e.g. PARP, Caspases), and gene expression profiles were evaluated from treated versus untreated samples.
(§7) Cell lines were plated at a density of 2500 cells per well in 96 well plates. After attachment, 2-DG was diluted in media at indicated concentrations and added to wells. Treatment was carried out for 48 hours in standard cell culture conditions, before cell viability was assessed using the CellTiter® Blue kit (Promega) according to manufacturer's instructions and read on a Beckman Coulter DTX 880. The percentage of viable cells was determined by normalizing treated samples to vehicle (PBS).

[6] = tested on: LKB1 positive NSCLC cells (H2009, H441); experiment: Cell viability after 2-DG (CellTiter Blue); type: cell-based, human; conditions: 20 mM 2-DG, 48 hours
Protocol: as §4, §5, §6, §7

[7] = tested on: AMPK phosphorylation in H2009, H441, H23, H2122 NSCLC cell lines; experiment: Immunoblot of AMPK Thr172 phosphorylation after 2-DG; type: cell-based, human; conditions: 20 mM 2-DG, 1 hour; LKB1 positive H2009, H441 vs LKB1 negative H23, H2122
Protocol: as §4
To investigate the role of LKB1 in the effectiveness of 2-DG treatment, four NSCLC cell lines (H23, H2122, H441, H2009) were screened by immunoblot for LKB1 expression (FIG. 3A).
as §2

[8] = tested on: mTOR in LKB1 null cells; experiment: mTOR activation in cells treated with 2-DG; type: cell-based; conditions: LKB1 null cells treated with 2-DG
[9] = tested on: H23-LKB1 cells; experiment: Immunoblot of AMPK phosphorylation after 2-DG; type: cell-based, human; conditions: H23-LKB1 cells treated with 2-DG
Protocol: as §1, §2

[10] = tested on: H23-KDLKB1 cells; experiment: Immunoblot of AMPK phosphorylation after 2-DG; type: cell-based, human; conditions: H23-KDLKB1 cells treated with 2-DG
Protocol: as §1, §2

[11] = tested on: LKB1 positive lines (H2009); experiment: Microarray gene expression profiling of 2-DG-treated cells; type: cell-based, human
Protocol: (§8) To test this hypothesis, apoptosis-related transcripts of H23 (LKB1 null) and H2009 (LKB1 positive) cells were compared by treatment with either low (2.5 mM) or high dose (20 mM) 2-DG or vehicle (PBS) for 6 hours followed by microarray-based assessment of gene expression. […] LKB1 negative (H23, H2122) and positive (H2009, H441) NSCLC cell lines were treated with decreasing doses of 2-deoxyglucose (2-DG) for 72 hours. Cell viability, markers of apoptosis (e.g. PARP, Caspases), and gene expression profiles were evaluated from treated versus untreated samples. Total RNA was extracted from cells using TRIzol (Invitrogen) followed by RNeasy Mini Kit purification (Qiagen) according to manufacturers specifications. Spectrophotometric analysis was performed on a NanoDrop ND-1000 (Thermo Scientific) and RNA quality was assessed on a BioAnalyzer 2100 (Agilent) using strict RNA integrity QC cutoffs. 500 ng of RNA was labeled and hybridized (in duplicate) to Agilent 4×44K Whole Human Genome One-Color Oligo Microarrays according to manufacturer specifications. Slides were scanned using the Agilent Microarray Scanner (model […]) and processed with Agilent's Feature Extraction software (v. 9.5.1). Comparative and statistical analyses for gene expression profiles, were carried out using GeneSpring 7.3. Apoptosis-related genes of interest were identified by key word search (“apoptosis”) followed by unsupervised hierarchical clustering. Significance values were determined by comparing expression of all LKB1+ samples (grouped) to all LKB1- samples (grouped) for each gene using the Student's t-test and a p<0.05 cutoff after multiple testing correction using the false discovery rate (FDR) method.

[12] = tested on: LKB1 negative cell lines (H23); experiment: as above; type: cell-based, human
Protocol: as §8

[13] = tested on: H23 cells; experiment: Caspase 3/7 activity (Caspase-Glo 3/7); type: cell-based, human; conditions: H23 (LKB1 null); increasing doses of 2-DG, 24 hours
Protocol: as §1, with “hours.” for “hours. Blot is representative of two independent studies. GAPDH was used as a loading control.”
as §3

[14] = cited from earlier work
[15] = human, single oral dose of 200 mg; cited from earlier work

Structure (SMILES): Cc1ccc(Nc2c(F)cccc2Cl)c(CC(=O)O)c1 [lumiracoxib]
- relative degree of selectivity for COX-2 over COX-1 (rank order) [1]: lumiracoxib=etoricoxib>valdecoxib=rofecoxib>>celecoxib

Structure (SMILES): CC(=O)Oc1ccccc1C(=O)O [aspirin]
- inhibition of COX-2 relative to COX-1 [1]: about equipotent

Structure (SMILES): CC(C)Cc1ccc(C(C)C(=O)O)cc1 (stereo not shown) [ibuprofen]
- inhibition of COX-2 relative to COX-1 [1]: sevenfold

Structure (SMILES): O=CC[C@@H](O)[C@H](O)[C@H](O)CO [2-DG, 2-deoxyglucose]
- cleaved PARP (marker of apoptosis) [2]: present
- cleavage of PARP [3]: prevented cleavage of PARP
- 2-DG induced activation of caspase 3 and 7 [4]: prevented 2-DG induced activation of caspase 3 and 7
- cell viability ([5]; LKB1 negative cells, 20 mM 2-DG): significant decrease in cell viability
- cell viability compared to LKB1 positive cells ([5]; LKB1 null cells, all doses, lowest 2.5 mM, p=5.73×10^−13): significant decrease in cell viability for all doses tested
- cell viability [6]: significant decrease in cell viability
- activation of AMPK (phosphorylation at Thr172) [7]: induced LKB1 dependent activation of AMPK
- mTOR activation [8]: increased mTOR activation
- phosphorylation of AMPK [9]: capable of phosphorylating AMPK
- phosphorylation of AMPK [10]: does not
- expression of pro-apoptotic markers [11]: no changes in expression
- expression of BCL-2 and BCL-2 interacting proteins ([12]; H23 (LKB1 null), 2.5 mM or 20 mM 2-DG, 6 hours, microarray): dose dependent changes
- expression of pro-apoptotic markers ([12]; LKB1 negative cell lines, 2-DG-treated): increase in the expression of pro-apoptotic markers
- activation of caspases 3 and 7 [13]: dose dependent activation of caspases 3 and 7

Structure (SMILES): CS(=O)(=O)c1ccc(C2=C(c3ccccc3)C(=O)OC2)cc1 [rofecoxib]
- increased risk of cardiovascular toxicities ([14]; trial to prevent adenomas): two-fold
- potency at inhibiting COX-2 relative to COX-1 [1]: about 300 times

Structure (SMILES): Cc1ccc(-c2ncc(Cl)cc2-c2ccc(S(C)(=O)=O)cc2)cn1 [etoricoxib]
- relative degree of selectivity for COX-2 over COX-1 (rank order) [1]: lumiracoxib=etoricoxib>valdecoxib=rofecoxib>>celecoxib

Structure (SMILES): Cc1ccc(-c2cc(C(F)(F)F)nn2-c2ccc(S(N)(=O)=O)cc2)cc1 [celecoxib]
- Cmax [15]: 709 ng/mL
- cardiovascular side effects ([14]; long-term use at 400 mg once daily, or 200 mg or 400 mg twice daily): severe cardiovascular side effects

Reference: US20110091574A1, “TREATMENT OF ADENOCARCINOMA EXPRESSING LKB1 WITH MTOR INHIBITOR IN COMBINATION WITH COX2 INHIBITOR” (Catholic Healthcare West, priority 2008, published 2011)
